# Measurements taken from US12129237B2, “Substituted diaminocarboxamide and diaminocarbonitrile pyrimidines, compositions thereof, and methods of treatment therewith” (SIGNAL PHARMACEUTICALS, LLC, priority 2011, dated 2024).
# pIC50: −log10 of the molar value.
# Molecular target: T1, JNK1 (Homo sapiens, UniProt P45983)
# T1 construct: purchased Carna Biosciences
# Experiment: JNK1 biochemical assays (one or more of: time resolved fluorescence, Z'-LYTE Cascade, radioactive)
# Conditions: Table 2; JNK1 IC50 activity level; read-out: Act. Level
# Protocol: JNK1 Assay. A 384-well time resolved fluorescence assay was used to monitor JNK1 activity. The JNK1 assay was run in the following assay buffer: 50 mM HEPES, 10 mM MgCl2, 1 mM EGTA, 2 mM DTT, and 0.01% Tween 20. To initiate the reaction 100 nM of ULight™-labeled 4EBP1 peptide (Perkin-Elmer) and 5 μM of ATP were mixed with 500 pM of JNK1 (Carna Biosciences), for a total assay volume of 20 μL in each well. The assay was incubated at room temperature for 1 h and terminated using a mixture of 30 mM EDTA and 4 nM Eu-anti-4EBP1, by adding 20 μL of stop solution to each well. Plates were read on a Perkin-Elmer Envision Reader.
# JNK1 Assay. The JNK1 Z′-LYTE® Cascade kinase assay was run in the following buffer: 50 mM HEPES at pH 7.5, 0.01% BRIJ-35, 10 mM MgCl2, 1 mM EGTA, and 1 mM DTT. […] The assay was incubated at room temperature for 1 h. […] The data was then read on a fluorescence plate reader and analyzed.
# JNK1 assay. The radioactive JNK kinase assay was carried out in a 96-well plate format at a final volume of 100 μL. […] JNK1 was diluted in the following dilution buffer (20 mM HEPES pH 7.6, 0.1 mM EDTA, 2.5 mM MgCl2, 0.004% (w/v) Triton X100, 2 μg/ml Leupeptin, 20 mM B-glycerol phosphate, 0.1 mM Na3VO4 dithiothreitol) and then pre-mixed with cJun diluted in the substrate solution buffer (20 mM HEPES pH 7.6, 50 mM NaCl, 0.1 mM EDTA, 2.5 mM MgCl2, 0.05% (w/v) Triton X100). […] The enzyme, substrate and inhibitor mixture was allowed to equilibrate at room temperature for 15 minutes. The reaction was started by the addition of 10 μL of 10×ATP in kinase buffer (130 mM MgCl2, 6 mM dithiothreitol, 150 mM para-nitrophenyl phosphate, 100 μCi/ml γ-[^33P]-ATP). Reactions were allowed to proceed for 60 minutes before precipitation of protein via trichloroacetic acid (7.2% TCA final). […] The precipitate was washed with Phosphate Buffered Saline and the amount of phosphate incorporated into cJun was quantified by scintillation counting using a Packard Topcount-NXT. All assays were conducted under conditions where phosphate incorporation was linear with respect to time and enzyme concentration.
# T1 sequence (P45983 whole entry): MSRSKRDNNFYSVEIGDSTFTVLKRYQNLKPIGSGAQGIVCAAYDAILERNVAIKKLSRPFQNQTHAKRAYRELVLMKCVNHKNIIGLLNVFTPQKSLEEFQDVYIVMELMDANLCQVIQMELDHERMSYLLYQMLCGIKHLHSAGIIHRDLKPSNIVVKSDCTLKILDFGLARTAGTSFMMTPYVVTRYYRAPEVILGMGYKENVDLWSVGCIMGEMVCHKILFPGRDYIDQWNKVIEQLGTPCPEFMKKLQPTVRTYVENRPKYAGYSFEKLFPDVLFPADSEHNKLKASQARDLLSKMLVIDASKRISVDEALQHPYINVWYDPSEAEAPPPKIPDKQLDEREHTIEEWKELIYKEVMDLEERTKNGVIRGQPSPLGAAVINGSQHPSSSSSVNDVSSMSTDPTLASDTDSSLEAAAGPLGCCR
row,pIC50,Structure (SMILES)
1,6.10 to 6.70,"COc1ccc(CCNc2ncc(C(N)=O)c(Nc3ccccc3)n2)cc1OC [Example B-66, 2-(3,4-dimethoxyphenethylamino)-4-(phenylamino)pyrimidine-5-carboxamide]"
2,6.10 to 6.70,"NC(=O)c1cnc(NCCc2ccccn2)nc1Nc1ccccc1 [Example B-63, 4-(phenylamino)-2-(2-(pyridin-2-yl)ethylamino)pyrimidine-5-carboxamide]"
3,6.10 to 6.70,"NC(=O)c1cnc(NCC2CCCO2)nc1Nc1ccccc1 (centres unmarked) [Example B-64, 4-(phenylamino)-2-((tetrahydrofuran-2-yl)methylamino)pyrimidine-5-carboxamide]"
4,> 6.70,"NC(=O)c1cnc(N[C@H]2CCc3ncccc3C2)nc1N[C@@H]1CCC[C@H](O)C1 [Example B-77, 4-((1R,3S)-3-hydroxycyclohexylamino)-2-((S)-5,6,7,8-tetrahydroquinolin-6-ylamino)pyrimidine-5-carboxamid]"

# Same assay, conditions: Table 3; JNK1 IC50 activity level; read-out: Act. Level
row,pIC50,Structure (SMILES)
1,5.00 to 6.00,"N#Cc1cnc(N[C@H]2CC[C@H](O)CC2)nc1NC1CC(F)(F)C1 [Example C-58, 4-(3,3-difluorocyclobutylamino)-2-((1r,4r)-4-hydroxycyclohexylamino) pyrimidine-5-carbonitrile]"
2,6.10 to 6.70,"CO[C@H]1CC[C@](C)(Nc2ncc(C#N)c(N[C@@H]3CCC[C@H](O)C3)n2)CC1 [Example C-57, 4-((1R,3S)-3-hydroxycyclohexylamino)-2-((1r,4R)-4-methoxy-1-methylcyclohexylamino) pyrimidine-5-carbonitrile]"
3,> 6.70,"CC(C)(C)Nc1ncc(C#N)c(N[C@@H]2CCCC[C@H](O)C2)n1 [Example C-38, 2-(tert-butylamino)-4-((1R,3S)-3-hydroxycycloheptylamino) pyrimidine-5-carbonitrile]"
4,> 6.70,"CO[C@H]1CC[C@H](Nc2ncc(C#N)c(N[C@@H]3CCC[C@@H]3CO)n2)CC1 [Example C-16, 4-((1R,2S)-2-(hydroxymethyl)cyclopentylamino)-2-((1r,4R)-4-methoxycyclohexylamino) pyrimidine-5-carbonitrile]"
5,> 6.70,"CO[C@H]1CC[C@H](Nc2ncc(C#N)c(N[C@@H]3CCC[C@](C)(O)C3)n2)CC1 [Example C-19, 4-((1R,3S)-3-hydroxy-3-methylcyclohexylamino)-2-((1r,4R)-4-methoxycyclohexylamino) pyrimidine-5-carbonitrile]"

# Same assay, conditions: one or more of the JNK1 biochemical assays; read-out: Act. Level (JNK1 IC50 activity level)
row,pIC50,Structure (SMILES)
1,> 6.70,"CC1(Nc2nc(NC34CCC(O)(CC3)C4)ncc2C(N)=O)CCCC1 [Example 446, 2-(4-hydroxybicyclo[2.2.1]heptan-1-ylamino)-4-(1-methylcyclopentylamino)pyrimidine-5-carboxamide]"
2,> 6.70,"CCC1(Nc2nc(N[C@H]3CC[C@H](O)CC3)ncc2C(N)=O)CCCC1 [Example 455, 4-(1-ethylcyclopentylamino)-2-((1r,4r)-4-hydroxycyclohexylamino)pyrimidine-5-carboxamide]"
3,> 6.70,"C[C@@H]1CC[C@@H](Nc2nc(NC3CCCC3)ncc2C(N)=O)C[C@H]1O [Example 364, 2-(cyclopentylamino)-4-((1R,3R,4R)-3-hydroxy-4-methylcyclohexylamino)pyrimidine-5-carboxamide]"
4,> 6.70,"NC(=O)c1cnc(N[C@H]2CC[C@H](O)CC2)nc1NC1CC(F)(F)C1 [Example 217, 4-(3,3-difluorocyclobutylamino)-2-((1r,4r)-4-hydroxycyclohexylamino)pyrimidine-5-carboxamide]"
5,> 6.70,"C[C@H]1C[C@H](Nc2nc(N[C@H]3CC[C@H](O)CC3)ncc2C(N)=O)C1 [Example 325, 2-((1r,4r)-4-hydroxycyclohexylamino)-4-((1r,3r)-3-methylcyclobutylamino)pyrimidine-5-carboxamide]"
6,> 6.70,"CO[C@H]1CC[C@H](Nc2ncc(C(N)=O)c(N[C@H]3C[C@H](C)C3)n2)CC1 [Example 336, 2-((1r,4r)-4-methoxycyclohexylamino)-4-((1r,3r)-3-methylcyclobutylamino)pyrimidine-5-carboxamide]"
7,> 6.70,"CO[C@H]1CC[C@H](Nc2ncc(C(N)=O)c(N[C@H](C)C3CC3)n2)CC1 [Example 421, 4-((R)-1-cyclopropylethylamino)-2-((1r,4R)-4-methoxycyclohexylamino)pyrimidine-5-carboxamide]"
8,> 6.70,"CC[C@@H](Nc1nc(N[C@H]2CC[C@H](OC)CC2)ncc1C(N)=O)C1CC1 [Example 374, 4-((R)-1-cyclopropylpropylamino)-2-((1r,4R)-4-methoxycyclohexylamino)pyrimidine-5-carboxamide]"
9,> 6.70,"CC1(Nc2ncc(C(N)=O)c(N[C@@H]3CCC[C@](C)(O)C3)n2)CCC1 [Example 353, 4-((1R,3S)-3-hydroxy-3-methylcyclohexylamino)-2-(1-methylcyclobutylamino)pyrimidine-5-carboxamide]"
10,> 6.70,"CO[C@H]1CC[C@H](Nc2ncc(C(N)=O)c(N[C@H]3C[C@@H](C)C3)n2)CC1 [Example 337, 2-((1r,4r)-4-methoxycyclohexylamino)-4-((1s,3s)-3-methycyclobutylamino)pyrimidine-5-carboxamide]"
11,> 6.70,"CCO[C@H]1CC[C@H](Nc2ncc(C(N)=O)c(NC(C)C)n2)CC1 [Example 224, 2-((1r,4r)-4-ethoxycyclohexylamino)-4-(isopropylamino)pyrimidine-5-carboxamide]"
12,> 6.70,"C[C@@H]1CC[C@@H](Nc2nc(NC3(C)CCCC3)ncc2C(N)=O)C[C@H]1O [Example 475, 4-((1R,3R,4R)-3-hydroxy-4-methylcyclohexylamino)-2-(1-methylcyclopentylamino)pyrimidine-5-carboxamide]"
13,> 6.70,"NC(=O)c1cnc(NC23CC(C2)C3)nc1N[C@@H]1CCCC[C@H](O)C1 [Example 346, 2-(bicyclo[1.1.1]pentan-1-ylamino)-4-((1R,3S)-3-hydroxycycloheptylamino)pyrimidine-5-carboxamide]"
14,> 6.70,"CCO[C@H]1CC[C@H](Nc2ncc(C(N)=O)c(NC(C)(C)C)n2)CC1 [Example 211, 4-(tert-butylamino)-2-((1r,4r)-4-ethoxycyclohexylamino)pyrimidine-5-carboxamide]"
15,> 6.70,"CC1CCC1Nc1nc(N[C@H]2CC[C@H](OCC(F)(F)F)CC2)ncc1C(N)=O (some centres unmarked) [Example 265, 4-(2-methylcyclobutylamino)-2-((1r,4r)-4-(2,2,2-trifluoroethoxy)cyclohexylamino)pyrimidine-5-carboxamide]"
16,6.10 to 6.70,"CC(C)(C)Nc1ncc(C(N)=O)c(NC(C)(C)C)n1 [Example 238, 2,4-bis(tert-butylamino)pyrimidine-5-carboxamide]"
17,> 6.70,"NC(=O)c1cnc(N[C@H]2CC[C@H](O)CC2)nc1NCCC1CCC1 [Example 219, 4-(2-cyclobutylethylamino)-2-((1r,4r)-4-hydroxycyclohexylamino)pyrimidine-5-carboxamide]"
18,> 6.70,"CC1(C)CCC(Nc2nc(NC(C)(C)C)ncc2C(N)=O)C(O)C1 (centres unmarked) [Example 343, 2-(tert-butylamino)-4-(2-hydroxy-4,4-dimethylcyclohexylamino)pyrimidine-5-carboxamide]"
19,> 6.70,"NC(=O)c1cnc(N[C@H]2CC[C@H](O)CC2)nc1NC1(C2CC2)CC1 [Example 355, 4-(bi(cycloprop)ylamino)-2-((1r,4r)-4-hydroxycyclohexylamino)pyrimidine-5-carboxamide]"
20,> 6.70,"NC(=O)c1cnc(N[C@H]2CC[C@H](OC(F)F)CC2)nc1NC12CC(C1)C2 [Example 420, 4-(bicyclo[1.1.1]pentan-1-ylamino)-2-((1r,4r)-4-(difluoromethoxy)cyclohexylamino)pyrimidine-5-carboxamide]"
21,> 6.70,"C[C@@H](Nc1nc(N[C@H]2CC[C@H](OC3CC3)CC2)ncc1C(N)=O)C1CC1 [Example 410, 2-((1r,4R)-4-cyclopropoxycyclohexylamino)-4-((R)-1-cyclopropylethylamino)pyrimidine-5-carboxamide]"

# Same assay, conditions: tested in one or more of the JNK1 biochemical assays; read-out: Act. Level (JNK1 biochemical assay IC50 activity level)
row,pIC50,Structure (SMILES)
1,> 6.70,"CO[C@H]1CC[C@H](Nc2ncc(C(N)=O)c(N[C@H]3CCC[C@@H]3O)n2)CC1 [Example A-91, 4-((1S,2S)-2-hydroxycyclopentylamino)-2-((1r,4S)-4-methoxycyclohexylamino)pyrimidine-5-carboxamide]"
2,6.10 to 6.70,"CCO[C@H]1CC[C@@H](Nc2nc(NC(C)(C)CO)ncc2C(N)=O)CC1 [Example A-106, 4-((1s,4s)-4-ethoxycyclohexylamino)-2-(1-hydroxy-2-methylpropan-2-ylamino)pyrimidine-5-carboxamide]"
3,> 6.70,"NC(=O)c1cnc(N[C@H]2CC[C@H](OCCF)CC2)nc1N[C@H]1CCC[C@@H]1O [Example A-75, 2-((1r,4S)-4-(2-fluoroethoxy)cyclohexylamino)-4-((1S,2S)-2-hydroxycyclopentylamino)pyrimidine-5-carboxamide]"
4,> 6.70,"NC(=O)c1cnc(NC2CCOCC2)nc1N[C@@H]1CCC[C@H](O)C1 [Example A-57, 4-((1R,3S)-3-hydroxycyclohexylamino)-2-(tetrahydro-2H-pyran-4-ylamino)pyrimidine-5-carboxamide]"
5,6.00 to 6.10,"CC(C)Nc1ncc(C(N)=O)c(N[C@H]2CC[C@@H](C(=O)N3CCCC3)CC2)n1 [Example A-143, 2-(isopropylamino)-4-((1s,4s)-4-(pyrrolidine-1-carbonyl)cyclohexylamino)pyrimidine-5-carboxamide]"
6,> 6.70,"CC(C)CC(=O)N1CCC(Nc2ncc(C(N)=O)c(NC3CCC3)n2)CC1 [Example A-107, 4-(cyclobutylamino)-2-(1-(3-methylbutanoyl)piperidin-4-ylamino)pyrimidine-5-carboxamide]"
7,6.10 to 6.70,"CC(C)Nc1ncc(C(N)=O)c(N[C@H]2CC[C@@H](NC(=O)C(C)C)CC2)n1 [Example A-142, 4-((1s,4s)-4-isobutyramidocyclohexylamino)-2-(isopropylamino)pyrimidine-5-carboxamide]"
8,> 6.70,"CO[C@H]1CC[C@H](Nc2ncc(C(N)=O)c(NC3(CO)CCCC3)n2)CC1 [Example A-78, 4-(1-(hydroxymethyl)cyclopentylamino)-2-((1r,4r)-4-methoxycyclohexylamino)pyrimidine-5-carboxamide]"
